Measured values as given in US20120046364A1, “Novel Sulfonic Acid-Containing Thyromimetics, and Methods for Their Use” (METABASIS THERAPEUTICS, INC., priority 2009, published 2012).

What was measured:
[1] = PO 24 Hr. CF TPC decrease; format: in vivo; settings: dose 0.2 mg/kg
Description: Administering sulfonic acid-containing compounds that bind to a TR to animals can result in changes in lipids, including hepatic and/or plasma cholesterol levels; changes in lipoprotein levels including LDL-cholesterol, lipoprotein a (Lp(a)); changes in hepatic glycogen levels; and changes in energy expenditure as measured by changes in oxygen consumption and in some cases animal weight. For example, the effect on cholesterol may be determined using cholesterol fed animals such as normal rats and hamsters, or TRα^−/− knockout mice. Cholesterol may be measured using standard tests. Hepatic glycogen levels may be determined from livers isolated from treated animals. Changes in energy expenditure may be monitored by measuring changes in oxygen consumption (MVO2). Varieties of methods are well described in the literature and include measurement in the whole animal using Oxymax chambers (U.S. Pat. No. 6,441,015). Livers from treated rats can also be evaluated (Fernandez et al., Toxicol. Lett. 69(2):205-10 (1993)) as well as isolated mitochondria from liver (Carreras et al., Am. J. Physiol. Heart Circ. Physiol. 281(6):H2282-8 (2001)). Hepatocytes from treated rats can also be evaluated (Ismail-Beigi F et al., J Gen Physiol. 73(3):369-83 (1979)).

[2] = target: T1, human thyroid hormone receptor TRβ (TRβ1) (Homo sapiens, UniProt P10828); assay: Receptor binding, TRβ (125I-T3 displacement / SPA); settings: for Ratio: TRα Kd / TRβ Kd
T1 construct: made in house; host or cells: Sf9 insect cells (baculovirus), crude lysate
T1 sequence (P10828 1-461): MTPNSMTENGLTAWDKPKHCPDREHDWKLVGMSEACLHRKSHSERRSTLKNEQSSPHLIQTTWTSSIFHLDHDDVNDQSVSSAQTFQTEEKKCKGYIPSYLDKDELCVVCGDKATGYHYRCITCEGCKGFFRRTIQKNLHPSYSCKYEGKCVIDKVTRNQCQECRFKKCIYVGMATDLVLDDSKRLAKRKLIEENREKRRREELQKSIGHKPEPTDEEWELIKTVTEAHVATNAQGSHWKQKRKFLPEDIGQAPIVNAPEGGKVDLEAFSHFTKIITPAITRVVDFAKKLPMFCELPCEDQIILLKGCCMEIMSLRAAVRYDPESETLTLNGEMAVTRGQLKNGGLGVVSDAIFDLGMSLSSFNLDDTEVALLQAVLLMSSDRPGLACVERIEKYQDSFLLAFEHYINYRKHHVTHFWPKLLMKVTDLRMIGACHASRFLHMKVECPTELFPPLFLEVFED
T1 sequence (P19793 1-462 partner): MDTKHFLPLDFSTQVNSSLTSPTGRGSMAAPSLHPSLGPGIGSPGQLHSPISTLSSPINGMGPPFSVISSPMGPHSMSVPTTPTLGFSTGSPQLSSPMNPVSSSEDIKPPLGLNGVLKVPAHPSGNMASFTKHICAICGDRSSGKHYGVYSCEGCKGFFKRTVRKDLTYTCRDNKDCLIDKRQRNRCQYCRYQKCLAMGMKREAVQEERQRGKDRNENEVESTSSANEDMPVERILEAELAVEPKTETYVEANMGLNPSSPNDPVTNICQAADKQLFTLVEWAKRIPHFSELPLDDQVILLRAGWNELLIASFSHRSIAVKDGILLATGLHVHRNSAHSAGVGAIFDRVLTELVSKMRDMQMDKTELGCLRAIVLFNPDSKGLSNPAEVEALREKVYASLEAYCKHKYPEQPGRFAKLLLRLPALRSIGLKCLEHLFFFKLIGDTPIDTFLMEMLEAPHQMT
Method: (§1) Methods: Baculoviruses expressing TRα1, TRβ1 and RXRα are generated using cDNA and other reagents from Invitrogen (Carlsbad, Calif.). To produce TR/RXR heterodimer proteins, the sf9 insect cells are first grown to a density of 15×10^5 cells/mL. TRα1 or TRβ1 and RXRα baculovirus stocks are added to the cell culture with a ratio of 1 to 1 (multiplicity of infection=10). The cells are harvested three days after the infection. […] The bound ^125I-T3 is counted with a scintillation counter.
(§2) Binding of compounds to either the TRα1 or TRβ1 are also performed by means of scintillation proximity assays (SPA). The SPA assay, a common method used for the quantitation of receptor-ligand equilibria, makes use of special beads coated with a scintillant and a capture molecule, copper, which binds to the histidine-tagged α or β receptor.

[3] = target: T2, human thyroid hormone receptor TRα (TRα1) (Homo sapiens, UniProt P10827); assay: Receptor binding, TRα (125I-T3 displacement / SPA)
T2 construct: made in house; host or cells: Sf9 insect cells (baculovirus), crude lysate
T2 sequence (P10827 1-410 isoform P10827-2): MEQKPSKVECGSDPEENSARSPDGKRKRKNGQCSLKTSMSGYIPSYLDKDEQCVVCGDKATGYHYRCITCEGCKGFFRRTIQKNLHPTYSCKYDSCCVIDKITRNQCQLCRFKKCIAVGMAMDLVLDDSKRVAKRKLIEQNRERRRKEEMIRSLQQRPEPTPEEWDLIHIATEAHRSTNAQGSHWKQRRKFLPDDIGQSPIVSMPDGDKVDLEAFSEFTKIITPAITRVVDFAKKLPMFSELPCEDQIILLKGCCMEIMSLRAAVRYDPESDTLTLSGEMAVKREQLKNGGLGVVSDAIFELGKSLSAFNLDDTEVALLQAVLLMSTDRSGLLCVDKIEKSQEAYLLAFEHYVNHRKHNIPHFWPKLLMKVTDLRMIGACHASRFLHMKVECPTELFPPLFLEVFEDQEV
T2 sequence (P19793 1-462 partner): T1 sequence (P19793 1-462 partner)
Method: as §1, §2

Kd [2]	Ratio [2]	Kd [3]	Compound	PO 24 Hr. CF TPC Dec (d % of Cont) [1]
0.4 nM	2.8	1.1 nM	3,5-dimethyl-4-(4′-hydroxy-3′-iso-propylbenzyl)phenyl-methanesulfonic acid [Compound 2]	−42 d % of Cont
0.7 nM	17.1	12 nM	Cc1cc(CS(=O)(=O)O)cc(C)c1Cc1ccc(O)c(C(C)C)c1 [Compound 1]	−45 d % of Cont
